Experimental findings from US11357748B2, “Methods for treating mendelian disorders of the epigenetic machinery” (THE JOHNS HOPKINS UNIVERSITY, priority 2014, dated 2022) are described below.

SMILES strings stand for the structures. Entries after “also recorded” stand apart in the source; their conditions may differ.

The subject of the experiment is genome-wide H3K4me3 in spleen cells. The experiment is described as follows: ChIP-seq of H3K4me3 in spleen cells of treated mice. In kind it is in vivo, mouse. The following applies: 10 mg/kg/day; vs Kmt2d+/+ littermates on vehicle; FIG. 25E, 27B. As to the method: Spleens were dissected from eight mice, four from each kmt2d genotype (+/βGeo or +/+) where half of each genotype was treated with AR-42 and half with vehicle only. Spleens were minced and passed through a 40 µm cell strainer to obtain single cell suspensions. 10 million cells were used for each ChIP-seq experiment following the native chromatin immunoprecipitation protocol, as previously described (Gilfillan et al. (2012) BMC Genomics 13:645), using a ChIP-grade antibody against H3K4me3 (9727, Cell Signaling Technology, Beverly, Mass.).
Sequencing was performed using a MiSeq system (Illumina, San Diego, Calif.). 4.8-9.6 million paired-end 26 bp reads were obtained per sample (Table 2; nReads=number of reads, alignRate=fraction aligned to genome; FRIP=fraction of reads in peaks). Reads were aligned to the m. musculus genome, version mm 10, using Bowtie 2 (Langmead and Salzberg (2012) Nat. Methods. 9: 357-9). Each sample was examined with regard to alignment rate as well as FRIP (fraction of reads in peaks), a measure of the ChIP efficiency (Table 2). […] For analysis, reads were merged into one meta-sample and peak calling was performed using MACS version 1.4.2 (Zhang et al. (2008) Genome Biol. 9: R137). […] This created a peak by sample matrix of read counts. […] Fold change and overall abundance was calculated as per edgeR. […]

For `CC(C)[C@H](C(=O)Nc1ccc(C(=O)NO)cc1)c1ccccc1` [AR-42, (S)—N-hydroxy-4-(3-methyl-2-phenylbutanamido)benzamide], the “genome-wide H3K4me3 in spleen cells of Kmt2d+/βGeo mice” value is “genome-wide increase in H3K4me3; also recorded: overcorrection of genome-wide H3K4me3; also recorded: improved”.
